Assay results from patent US20130158362A1 (INFACARE PHARMACEUTICAL CORPORATION, priority 2011, published 2013).
Where “and” joins values, the source holds several entries; their conditions need not be identical. Equal values may be shown once. Entries after “also recorded” stand apart in the source; their conditions may differ. Marks after values point to notes of the source that are not given here.

Key:
[1] = Phase 2b trial: pharmacokinetics of stannsoporfin in plasma after IM injection; assay type: in vivo, human
Description: Pharmacokinetic Assessments: Subjects were stratified into 2 groups having different sampling times to better characterize the PK curves.

[2] = test system: term and late preterm subjects with hyperbilirubinemia; experiment: Phase 2b trial: hematology and chemistry laboratory tests (platelet counts); assay type: in vivo, human; conditions: for Platelet counts (mean), Delta: baseline to 48 hours
Description: (§1) Safety measurements included adverse events (AEs), hematology and chemistry laboratory tests, vital sign measurements, physical examinations, dermatological assessments, hearing assessments, ophthalmological assessments, neurological assessments, and quantitative electrocardiograms (ECGs).
(§2) All other safety endpoints (vital sign measurements, hematology and chemistry laboratory tests, physical examination results, ECG results, etc.) were summarized by treatment group and visit. In addition, shift tables were generated for laboratory results comparing postbaseline results with baseline. Similar shift tables were generated for results of vital sign measurements.

heme oxygenase = conditions: cited from earlier work
[3] = test system: term and late preterm subjects with hyperbilirubinemia; experiment: Phase 2b trial: quantitative electrocardiograms (QT); assay type: in vivo, human
Description: In some embodiments, 12-Lead ECGs measurements comprise clarification of a cardiovascular event, measurement of cardiac intervals and morphological assessment, measurements of the RR, PR, QRS, and QT interval durations and combinations thereof. In some embodiments, Bazett's correction of the QT interval (QTcB), Fridericia's correction of the QT interval (QTcF), and heart rate (HR) can be derived from 12-Lead ECGs measurements.
as §1, §2

[4] = test system: term and late preterm subjects with hyperbilirubinemia; experiment: Phase 2b trial: dermatological assessment (rash); assay type: in vivo, human
Description: In some embodiments, dermatological examinations comprise the identification of photosensitive reactions if any. Photosensitive reaction may occur with metalloporphyrins and broad spectrum light. Photosensitive reactions include skin rashes.
as §1

[5] = test system: term and late preterm subjects with hyperbilirubinemia; experiment: Phase 2b trial: vital signs, physical, neurological, audiology and ophthalmological examinations; assay type: in vivo, human
Description: as §1, §2

[6] = 4.5 mg dose, baseline to 48 hours post dose

tin IV mesoporphyrin IX dichloride [Stannsoporfin]
T1/2 ([1]; 1.5 mg/kg IM): 5.46 h
Tmax ([1]; 1.5 mg/kg IM): 1.87 h
T1/2 ([1]; 3.0 mg/kg IM): 10.7 h
Tmax ([1]; 3.0 mg/kg IM): 1.52 h
T1/2 ([1]; 4.5 mg/kg IM): 9.86 h
Tmax ([1]; 4.5 mg/kg IM): 2.3 h
T1/2, Mean of the three doses ([1]; 1.5, 3.0 and 4.5 mg/kg IM): 8.6 h
Tmax, Mean of the three doses ([1]; 1.5, 3.0 and 4.5 mg/kg IM): 1.89 h
increase in Cmax with dose ([1]; 1.5 to 4.5 mg/kg dose range): dose-proportional increase
elimination half-life ([1]; IM injection, final data): approximately 10 hours
time of peak plasma concentrations post-treatment ([1]; IM injection, final data): ≤ 1 h
time plasma stannsoporfin concentrations measurable post treatment ([1]; all subjects at doses of 3 mg/kg and above): at least 48 hours
intersubject variability in Cmax and AUCs ([1]; neonates, IM): ≤ 30%
Platelet counts (mean) ([2]; 1.5 mg/kg IM, 48 hours): 234.000
Platelet counts (mean) ([2]; 1.5 mg/kg IM, Day 14): 477,000
Platelet counts (mean), Delta ([2]; 1.5 mg/kg IM): −31,000
Platelet counts (mean) ([2]; 3.0 mg/kg IM, 48 hours): 220,000
Platelet counts (mean) ([2]; 3.0 mg/kg IM, Day 14): 453,000
Platelet counts (mean), Delta ([2]; 3.0 mg/kg IM): −43,000
Platelet count, individual subjects, % Change [2, 6]: 68.6% and 47.1% and 60.8% and 2.9% and 8.4% and 41.0%
Platelet count, individual subjects, Delta [2, 6]: −153,000 and −113,000 and −141,000 and −11,000 and −22,000 and −128,000
Platelet counts (mean) ([2]; 4.5 mg/kg IM, 48 hours): 180,000
Platelet counts (mean) ([2]; 4.5 mg/kg IM, Day 14): 441,000
Platelet counts (mean), Delta ([2]; 4.5 mg/kg IM): −85,000
Platelet count, individual subjects ([2]; 4.5 mg/kg dose, 48 hours post dose (n = 6)): 70,000* and 127,000† and 91,000** and 368,000 and 240,000 and 184,000†
platelets at 48 hours ([2]; 4.5 mg/kg, all subjects, normalized by Day 14): moderate drops in platelets
Chemistries, liver function tests and renal function tests ([2]; 1.5 to 4.5 mg/kg IM): normal
Platelet counts from baseline to 48 hours after administration ([2]; all stannsoporfin doses, placebo remained stable): decreased
average platelet counts by day 14 ([2]; all test groups): returned to the normal range
inhibition of heme oxygenase (heme oxygenase): potent competitive inhibitor
QT prolongation ([3]; 1.5 to 4.5 mg/kg IM): no QT prolongation
effect on heart rate, PR interval, RR interval, QRS complexes and QT interval ([3]; 1.5 to 4.5 mg/kg IM): no effect
ECG results compared to the placebo group ([3]; final data): no dose-related trends or marked differences
Rash and PT, n (% of those with a rash) ([4]; 1.5 mg/kg IM): 2 (66.7%)
Subjects with any rash, n (%) ([4]; 1.5 mg/kg IM): 3 (17.6%)
types of rashes observed ([4]; 1.5 mg/kg IM): Contusion; also recorded: Diaper Dermatitis; also recorded: PT Induced rash*; also recorded: Desquamation; also recorded: Contact Dermatitis
Rash and PT, n (% of those with a rash) ([4]; 3.0 mg/kg IM): 3 (37.5%)
Subjects with any rash, n (%) ([4]; 3.0 mg/kg IM): 8 (44.4%)
types of rashes observed ([4]; 3.0 mg/kg IM): Neonatal Acne; also recorded: Erythema; also recorded: Seborrhea; also recorded: Diaper rash; also recorded: Flushing
Rash and PT, n (%) ([4]; 4.5 mg/kg IM): 1 (12.5%)
Subjects with any rash, n (%) ([4]; 4.5 mg/kg IM): 1 (13.3%)
types of rashes observed ([4]; 4.5 mg/kg IM): Erythema **
effect on vital signs (blood pressure, pulse, respiratory rate, temperature) ([5]; 1.5 to 4.5 mg/kg IM, preliminary data): no effect
mean pulse ([5]; 45 minutes after treatment, no longer observed at 1.5 hours): decrease in mean pulse
audiology examinations ([5]; screening, 48 hours after treatment/hospital discharge, or early termination, all subjects): normal
